Common to all, as to test: relative viability (nuclei count vs DMSO), 5 days (fraction); higher = more cells survive
Compound in the test “Masitinib + Tozasertib”: Cc1ccc(NC(=O)c2ccc(CN3CCN(C)CC3)cc2)cc1Nc1nc(-c2cccnc2)cs1 [Masitinib] + Cc1cc(Nc2cc(N3CCN(C)CC3)nc(Sc3ccc(NC(=O)C4CC4)cc3)n2)n[nH]1 [Tozasertib] (partner 0.1 µM)
Put shortly:
(§1)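 After 5 days of treatment, lung cancer cells in 1536-well plates were fixed and stained in a single step (final 0.05% Triton X-100, 1% formaldehyde, 1 ug/ml Hoechst) and their nuclei counted on 4× images. Treatment had been applied by pin tool the day after seeding as one drug alone or as a fixed anchor-drug dose with five library-drug doses (not always all listed) in √10 steps. Relative viability is the nuclei count of treated wells divided by that of vehicle wells, and values are medians of duplicate plates.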

Compound in the test “Masitinib + Alpelisib”: Cc1ccc(NC(=O)c2ccc(CN3CCN(C)CC3)cc2)cc1Nc1nc(-c2cccnc2)cs1 [Masitinib] + Cc1nc(NC(=O)N2CCC[C@H]2C(N)=O)sc1-c1ccnc(C(C)(C)C(F)(F)F)c1 [Alpelisib] (partner 2 µM)
Put shortly: as §1

Compound in the test “Masitinib + Phenformin”: Cc1ccc(NC(=O)c2ccc(CN3CCN(C)CC3)cc2)cc1Nc1nc(-c2cccnc2)cs1 [Masitinib] + N=C(N)NC(=N)NCCc1ccccc1 [Phenformin] (partner 250 µM)
Put shortly: as §1

Compound in the test “Masitinib + Palbociclib”: Cc1ccc(NC(=O)c2ccc(CN3CCN(C)CC3)cc2)cc1Nc1nc(-c2cccnc2)cs1 [Masitinib] + CC(=O)c1c(C)c2cnc(Nc3ccc(N4CCNCC4)cn3)nc2n(C2CCCC2)c1=O [Palbociclib] (partner 0.5 µM)
The essentials: as §1

On to PC-3 [JPC-3], for which the relative viability with Masitinib + Tozasertib (first compound 0.01 µM) turned out to be 0.879; with Masitinib + Tozasertib (first compound 0.03162 µM) it was 0.782; with Masitinib + Tozasertib (first compound 0.1 µM), 0.917; with Masitinib + Tozasertib (first compound 0.3162 µM), 0.824; with Masitinib + Tozasertib (first compound 1 µM) it was 0.878; with Masitinib + Alpelisib (first compound 0.01 µM), 1.01. Moreover, the relative viability was determined as 1.03 with Masitinib + Alpelisib (first compound 0.03162 µM); 0.978 with Masitinib + Alpelisib (first compound 0.1 µM); 1.03 with Masitinib + Alpelisib (first compound 0.3162 µM); 1.01 with Masitinib + Alpelisib (first compound 1 µM); 0.47 with Masitinib + Phenformin (first compound 0.01 µM); 0.429 with Masitinib + Phenformin (first compound 0.03162 µM). Moreover, the relative viability worked out at 0.47 in the test with Masitinib + Phenformin (first compound 0.1 µM); 0.46 in the test with Masitinib + Phenformin (first compound 0.3162 µM); 0.37 in the test with Masitinib + Phenformin (first compound 1 µM); 0.438 in the test with Masitinib + Palbociclib (first compound 0.01 µM); 0.498 with Masitinib + Palbociclib (first compound 0.03162 µM); 0.553 with Masitinib + Palbociclib (first compound 0.1 µM). For the same cell line, the relative viability with Masitinib + Palbociclib (first compound 0.3162 µM) was 0.526; with Masitinib + Palbociclib (first compound 1 µM), 0.466.
Consider PC-14, for which the relative viability with Masitinib + Tozasertib (first compound 0.01 µM) is 0.5; with Masitinib + Tozasertib (first compound 0.03162 µM), 0.563; in the test with Masitinib + Tozasertib (first compound 0.1 µM), 0.512; with Masitinib + Tozasertib (first compound 0.3162 µM), 0.482; with Masitinib + Tozasertib (first compound 1 µM), 0.478; in the test with Masitinib + Alpelisib (first compound 0.01 µM), 0.915. For the same cell line, the relative viability was 0.865 with Masitinib + Alpelisib (first compound 0.03162 µM); 1.11 with Masitinib + Alpelisib (first compound 0.1 µM); 1.01 in the test with Masitinib + Alpelisib (first compound 0.3162 µM); 0.846 in the test with Masitinib + Alpelisib (first compound 1 µM); 0.458 with Masitinib + Phenformin (first compound 0.01 µM); 0.633 with Masitinib + Phenformin (first compound 0.03162 µM). The relative viability came to 0.572 in the test with Masitinib + Phenformin (first compound 0.1 µM); 0.507 with Masitinib + Phenformin (first compound 0.3162 µM); 0.506 with Masitinib + Phenformin (first compound 1 µM); 0.57 in the test with Masitinib + Palbociclib (first compound 0.01 µM); 0.323 with Masitinib + Palbociclib (first compound 0.03162 µM); 0.636 with Masitinib + Palbociclib (first compound 0.1 µM). Further, the results for the relative viability with Masitinib + Palbociclib (first compound 0.3162 µM) and with Masitinib + Palbociclib (first compound 1 µM) were 0.57 and 0.621, respectively.
As for RERF-LC-KJ, the relative viability with Masitinib + Tozasertib (first compound 0.01 µM) amounted to 0.558; in the test with Masitinib + Tozasertib (first compound 0.03162 µM) it was 0.41; with Masitinib + Tozasertib (first compound 0.1 µM), 0.492; in the test with Masitinib + Tozasertib (first compound 0.3162 µM), 0.465; in the test with Masitinib + Tozasertib (first compound 1 µM) it was 0.336; in the test with Masitinib + Alpelisib (first compound 0.01 µM), 0.865. Moreover, the relative viability was found to be 0.762 with Masitinib + Alpelisib (first compound 0.03162 µM); 0.917 with Masitinib + Alpelisib (first compound 0.1 µM); 0.842 in the test with Masitinib + Alpelisib (first compound 0.3162 µM); 0.738 with Masitinib + Alpelisib (first compound 1 µM); 0.387 with Masitinib + Phenformin (first compound 0.01 µM); 0.451 in the test with Masitinib + Phenformin (first compound 0.03162 µM). Moreover, the relative viability with Masitinib + Phenformin (first compound 0.1 µM) stood at 0.438; with Masitinib + Phenformin (first compound 0.3162 µM), 0.447; in the test with Masitinib + Phenformin (first compound 1 µM) it was 0.35; with Masitinib + Palbociclib (first compound 0.01 µM), 1.05; with Masitinib + Palbociclib (first compound 0.03162 µM), 1.02; with Masitinib + Palbociclib (first compound 0.1 µM) it was 1.09. Further, the figures for the relative viability in the test with Masitinib + Palbociclib (first compound 0.3162 µM) and in the test with Masitinib + Palbociclib (first compound 1 µM) were 1.21 and 0.938, respectively.
Turning to SK-LU-1, the relative viability came out at 0.349 in the test with Masitinib + Tozasertib (first compound 0.01 µM); 0.299 with Masitinib + Tozasertib (first compound 0.03162 µM); 0.319 with Masitinib + Tozasertib (first compound 0.1 µM); 0.35 with Masitinib + Tozasertib (first compound 0.3162 µM); 0.292 in the test with Masitinib + Tozasertib (first compound 1 µM); 1.12 with Masitinib + Alpelisib (first compound 0.01 µM). Besides, the relative viability in the test with Masitinib + Alpelisib (first compound 0.03162 µM) is 1.14; with Masitinib + Alpelisib (first compound 0.1 µM), 0.984; with Masitinib + Alpelisib (first compound 0.3162 µM) it was 1.31; in the test with Masitinib + Alpelisib (first compound 1 µM), 1.03; in the test with Masitinib + Phenformin (first compound 0.01 µM), 0.488; with Masitinib + Phenformin (first compound 0.03162 µM) it was 0.466. The relative viability in the test with Masitinib + Phenformin (first compound 0.1 µM) came to 0.55; with Masitinib + Phenformin (first compound 0.3162 µM), 0.687; with Masitinib + Phenformin (first compound 1 µM), 0.497; in the test with Masitinib + Palbociclib (first compound 0.01 µM), 0.431; with Masitinib + Palbociclib (first compound 0.03162 µM), 0.362; with Masitinib + Palbociclib (first compound 0.1 µM), 0.373. The relative viability with Masitinib + Palbociclib (first compound 0.3162 µM) came to 0.405; in the test with Masitinib + Palbociclib (first compound 1 µM) it was 0.416.
On to SK-MES-1, for which the relative viability with Masitinib + Tozasertib (first compound 0.01 µM) was determined as 1.02; with Masitinib + Tozasertib (first compound 0.03162 µM), 0.907; with Masitinib + Tozasertib (first compound 0.1 µM), 0.925; in the test with Masitinib + Tozasertib (first compound 0.3162 µM) it was 0.677; with Masitinib + Tozasertib (first compound 1 µM), 0.81; with Masitinib + Alpelisib (first compound 0.01 µM) it was 1.07. The relative viability in the test with Masitinib + Alpelisib (first compound 0.03162 µM) is 0.946; with Masitinib + Alpelisib (first compound 0.1 µM), 1.08; with Masitinib + Alpelisib (first compound 0.3162 µM), 0.921; in the test with Masitinib + Alpelisib (first compound 1 µM) it was 0.732; with Masitinib + Phenformin (first compound 0.01 µM), 0.657; in the test with Masitinib + Phenformin (first compound 0.03162 µM), 0.691. Besides, the relative viability amounted to 0.686 in the test with Masitinib + Phenformin (first compound 0.1 µM); 0.659 in the test with Masitinib + Phenformin (first compound 0.3162 µM); 0.512 with Masitinib + Phenformin (first compound 1 µM); 0.306 in the test with Masitinib + Palbociclib (first compound 0.01 µM); 0.269 in the test with Masitinib + Palbociclib (first compound 0.03162 µM); 0.318 with Masitinib + Palbociclib (first compound 0.1 µM). Besides, the relative viability is 0.302 with Masitinib + Palbociclib (first compound 0.3162 µM) and 0.336 with Masitinib + Palbociclib (first compound 1 µM).
Turning to SW 1573, the relative viability turned out to be 0.133 with Masitinib + Tozasertib (first compound 0.01 µM); 0.144 with Masitinib + Tozasertib (first compound 0.03162 µM); 0.213 in the test with Masitinib + Tozasertib (first compound 0.1 µM); 0.15 in the test with Masitinib + Tozasertib (first compound 0.3162 µM); 0.135 with Masitinib + Tozasertib (first compound 1 µM); 0.89 with Masitinib + Alpelisib (first compound 0.01 µM). Moreover, the relative viability worked out at 0.768 with Masitinib + Alpelisib (first compound 0.03162 µM); 0.873 with Masitinib + Alpelisib (first compound 0.1 µM); 0.831 with Masitinib + Alpelisib (first compound 0.3162 µM); 0.66 with Masitinib + Alpelisib (first compound 1 µM); 0.351 with Masitinib + Phenformin (first compound 0.01 µM); 0.344 with Masitinib + Phenformin (first compound 0.03162 µM). In addition, the relative viability with Masitinib + Phenformin (first compound 0.1 µM) stood at 0.341; in the test with Masitinib + Phenformin (first compound 0.3162 µM), 0.354; with Masitinib + Phenformin (first compound 1 µM), 0.383; in the test with Masitinib + Palbociclib (first compound 0.01 µM), 0.357; with Masitinib + Palbociclib (first compound 0.03162 µM), 0.372; with Masitinib + Palbociclib (first compound 0.1 µM) it was 0.446. Moreover, the relative viability with Masitinib + Palbociclib (first compound 0.3162 µM) came out at 0.41; with Masitinib + Palbociclib (first compound 1 µM), 0.374.
For UMC-11, the relative viability with Masitinib + Tozasertib (first compound 0.01 µM) stood at 0.204; with Masitinib + Tozasertib (first compound 0.03162 µM), 0.207; in the test with Masitinib + Tozasertib (first compound 0.1 µM), 0.198; with Masitinib + Tozasertib (first compound 0.3162 µM) it was 0.211; with Masitinib + Tozasertib (first compound 1 µM), 0.195; with Masitinib + Alpelisib (first compound 0.01 µM), 0.899. Further, the relative viability with Masitinib + Alpelisib (first compound 0.03162 µM) was 0.713; in the test with Masitinib + Alpelisib (first compound 0.1 µM) it was 1.12; in the test with Masitinib + Alpelisib (first compound 0.3162 µM) it was 1.17; in the test with Masitinib + Alpelisib (first compound 1 µM), 1.2; with Masitinib + Phenformin (first compound 0.03162 µM), 0.331; with Masitinib + Phenformin (first compound 0.1 µM), 0.363. Besides, the relative viability in the test with Masitinib + Phenformin (first compound 0.3162 µM) turned out to be 0.377; with Masitinib + Phenformin (first compound 1 µM), 0.338; with Masitinib + Palbociclib (first compound 0.01 µM) it was 0.323; with Masitinib + Palbociclib (first compound 0.03162 µM), 0.384; in the test with Masitinib + Palbociclib (first compound 0.1 µM), 0.319; with Masitinib + Palbociclib (first compound 0.3162 µM) it was 0.351. In addition, the relative viability with Masitinib + Palbociclib (first compound 1 µM) is 0.304.

(Values after the supplement of paper PMC10307832.)
